Measured values as given in the NIST ThermoML archive (doi:10.1021/je060271a).
Values joined by “and” are separate entries in the source; they are usually repeats but may differ in a detail not shown here. Equal entries are not always repeated.

Conditions: 323.15 K, Liquid, Vibrating tube method

CCCCCC(=O)OCC(COC(=O)CCCCC)(COC(=O)CCCCC)COC(=O)CCCCC [pentaerythritol tetrahexanoate]
Conditions	mass density
1417.8 kPa	973.7 kg/m3
1423 kPa	973.6 kg/m3
1428.2 kPa	973.6 kg/m3
1434.7 kPa	973.7 kg/m3
1469.9 kPa	973.8 kg/m3
1475.5 kPa	973.7 kg/m3
1482.4 kPa	973.8 kg/m3
1487.6 kPa	973.7 kg/m3
1494.2 kPa	973.8 kg/m3
1505.5 kPa	973.8 kg/m3
1510.7 kPa	973.7 kg/m3
1517 kPa	973.8 kg/m3
1522.7 kPa	973.9 kg/m3
1529.6 kPa	973.7 kg/m3
1536.8 kPa	973.7 kg/m3
1600 kPa	973.8 kg/m3
1606.9 kPa	973.8 kg/m3
1612.8 kPa	973.9 kg/m3
1619 kPa	973.7 kg/m3
1626.3 kPa	973.9 kg/m3
1632.1 kPa	973.7 kg/m3
1639.4 kPa	973.9 kg/m3
1645.6 kPa	973.8 kg/m3
1653.1 kPa	973.9 kg/m3
1660 kPa	973.9 kg/m3
1667 kPa	973.8 kg/m3
1674.8 kPa	973.9 kg/m3
1682.8 kPa	973.8 kg/m3
1689 kPa	973.9 kg/m3
1695.8 kPa	973.9 kg/m3
1703.9 kPa	974 kg/m3
1710.5 kPa	973.9 kg/m3
1718.3 kPa	974 kg/m3
1725.1 kPa	973.9 kg/m3
1732.7 kPa	973.7 kg/m3
1739.2 kPa	973.8 kg/m3
1747.3 kPa	973.9 kg/m3
1753.9 kPa	973.9 kg/m3
1761.9 kPa	974 kg/m3
1770.6 kPa	973.9 kg/m3
1777.5 kPa	974 kg/m3
1896.8 kPa	974 kg/m3
1906.3 kPa	974 kg/m3
1914.3 kPa	974.1 kg/m3
1923.6 kPa	973.9 kg/m3
1931.8 kPa	974 kg/m3
1940.3 kPa	974 kg/m3
1947.8 kPa	974 kg/m3
1956.8 kPa	974.1 kg/m3
1966 kPa	974 kg/m3
1973.3 kPa	974 kg/m3
1981.3 kPa	974.1 kg/m3
1990.8 kPa	974.2 kg/m3
2115.6 kPa	974 kg/m3
2124.4 kPa	974.1 kg/m3
2134.6 kPa	974.2 kg/m3
2174 kPa	974.2 kg/m3
2184.9 kPa	974.2 kg/m3
2193.8 kPa	974.2 kg/m3
2203.2 kPa	974.3 kg/m3
2214.3 kPa	974.2 kg/m3
2223.5 kPa	974.3 kg/m3
2234.2 kPa	974.3 kg/m3
2245.5 kPa	974.4 kg/m3
2255 kPa	974.4 kg/m3
2264.6 kPa	974.2 kg/m3
2495.1 kPa	974.6 kg/m3
2505.3 kPa	974.6 kg/m3
2517.8 kPa	974.5 kg/m3
2528.6 kPa	974.4 kg/m3
2541.1 kPa	974.5 kg/m3
2553.7 kPa	974.6 kg/m3
2564.1 kPa	974.4 kg/m3
2574.7 kPa	974.3 kg/m3
2587.7 kPa	974.5 kg/m3
2599.7 kPa	974.4 kg/m3
2609.9 kPa	974.6 kg/m3
2622.2 kPa	974.5 kg/m3
2632.1 kPa	974.6 kg/m3
2642.3 kPa	974.5 kg/m3
2654.5 kPa	974.6 kg/m3
2664.9 kPa	974.6 kg/m3
2676.8 kPa	974.6 kg/m3
2689.2 kPa	974.6 kg/m3
2699.9 kPa	974.4 kg/m3
2710 kPa	974.6 kg/m3
2722.3 kPa	974.6 kg/m3
2732.8 kPa	974.6 kg/m3
2745.2 kPa	974.6 kg/m3
2758 kPa	974.5 kg/m3
2768.6 kPa	974.7 kg/m3
2779.1 kPa	974.7 kg/m3
2791.8 kPa	974.6 kg/m3
2801.9 kPa	974.7 kg/m3
2814.5 kPa	974.7 kg/m3
2827.5 kPa	974.6 kg/m3
2837.8 kPa	974.7 kg/m3
2849 kPa	974.6 kg/m3
2862 kPa	974.6 kg/m3
2872.9 kPa	974.7 kg/m3
2885.9 kPa	974.7 kg/m3
2910.2 kPa	974.8 kg/m3
2921.8 kPa	974.6 kg/m3
2946.6 kPa	974.8 kg/m3
2960 kPa	974.8 kg/m3
3369.6 kPa	975.1 kg/m3
3401.3 kPa	975.1 kg/m3
3416.4 kPa	975.1 kg/m3
3430.9 kPa	975.1 kg/m3
3448.4 kPa	975.1 kg/m3
3481 kPa	975.1 kg/m3
3512.7 kPa	975.1 kg/m3
3527.3 kPa	975.1 kg/m3
3544.2 kPa	975.1 kg/m3
3557.7 kPa	975.2 kg/m3
3574.4 kPa	975.2 kg/m3
3588.4 kPa	975.2 kg/m3
3605 kPa	975.1 kg/m3
3619.2 kPa	975.1 kg/m3
3805.2 kPa	975.3 kg/m3
3820 kPa	975.3 kg/m3
3837.5 kPa	975.4 kg/m3
3851.8 kPa	975.4 kg/m3
3869.3 kPa	975.5 kg/m3
3886.8 kPa	975.5 kg/m3
3901.9 kPa	975.4 kg/m3
3917 kPa	975.4 kg/m3
3935.3 kPa	975.5 kg/m3
3950.4 kPa	975.4 kg/m3
3968.8 kPa	975.5 kg/m3
3984.3 kPa	975.5 kg/m3
4002.9 kPa	975.4 kg/m3
4018.6 kPa	975.5 kg/m3
4034.4 kPa	975.4 kg/m3
4138.3 kPa	975.6 kg/m3
4157.9 kPa	975.5 kg/m3
4209.5 kPa	975.6 kg/m3
4228.7 kPa	975.6 kg/m3
4245.5 kPa	975.7 kg/m3
4265.2 kPa	975.6 kg/m3
4281.8 kPa	975.7 kg/m3
4301.8 kPa	975.7 kg/m3
4319.1 kPa	975.8 kg/m3
4339.5 kPa	975.8 kg/m3
4356.6 kPa	975.7 kg/m3
4377.1 kPa	975.8 kg/m3
4397.7 kPa	975.8 kg/m3
4414.6 kPa	975.8 kg/m3
4431.8 kPa	975.7 kg/m3
4453.1 kPa	975.7 kg/m3
4474 kPa	975.7 kg/m3
4491.8 kPa	975.8 kg/m3
4509.3 kPa	975.7 kg/m3
6215.6 kPa	977 kg/m3
6237.7 kPa	977 kg/m3
6256.2 kPa	977.1 kg/m3
6278.3 kPa	977.1 kg/m3
6297 kPa	977 kg/m3
6319.4 kPa	977.2 kg/m3
6338.8 kPa	977.1 kg/m3
6508.8 kPa	977.2 kg/m3
6532.7 kPa	977.2 kg/m3
6552.5 kPa	977.2 kg/m3
7405.8 kPa	977.7 kg/m3
7431 kPa	977.8 kg/m3
7486 kPa	977.8 kg/m3
7516.4 kPa	978 kg/m3
7547.5 kPa	977.8 kg/m3
7600 kPa	978 kg/m3
7657.3 kPa	978 kg/m3
7688 kPa	978 kg/m3
7711.5 kPa	978.1 kg/m3
7734.2 kPa	978.1 kg/m3
7761.5 kPa	978 kg/m3
7886.8 kPa	978.1 kg/m3
7915.3 kPa	978.1 kg/m3
7938.6 kPa	978.2 kg/m3
7966.7 kPa	978.2 kg/m3
7990.5 kPa	978.2 kg/m3
8019.5 kPa	978.3 kg/m3
8044.2 kPa	978.3 kg/m3
8073.3 kPa	978.1 kg/m3
8098.3 kPa	978.3 kg/m3
8128.9 kPa	978.3 kg/m3
8158.2 kPa	978.5 kg/m3
8182.5 kPa	978.3 kg/m3
8207.5 kPa	978.3 kg/m3
9038.7 kPa	978.9 kg/m3
9060.6 kPa	979.1 kg/m3
9078.3 kPa	978.9 kg/m3
9100 kPa	978.9 kg/m3
9123 kPa	978.9 kg/m3
9245.2 kPa	979 kg/m3
9267 kPa	979 kg/m3
9289.4 kPa	979.1 kg/m3
9308.6 kPa	979.1 kg/m3
9331.8 kPa	979.1 kg/m3
9354.9 kPa	979 kg/m3
9374.6 kPa	979.1 kg/m3
9395.3 kPa	979.1 kg/m3
9417.9 kPa	979.2 kg/m3
9435.5 kPa	979.1 kg/m3
9456.1 kPa	979.2 kg/m3
9473 kPa	979.2 kg/m3
9493.7 kPa	979.2 kg/m3
9510.8 kPa	979.3 kg/m3
9531.3 kPa	979.2 kg/m3
9552.1 kPa	979.3 kg/m3
9569.5 kPa	979.3 kg/m3
9590.4 kPa	979.3 kg/m3
9603.6 kPa	979.4 kg/m3
9617.2 kPa	979.3 kg/m3
9629.1 kPa	979.4 kg/m3
9642.9 kPa	979.3 kg/m3
9655.3 kPa	979.4 kg/m3
9669.9 kPa	979.3 kg/m3
9681.3 kPa	979.5 kg/m3
9694.7 kPa	979.3 kg/m3
9706.3 kPa	979.4 kg/m3
9735.4 kPa	979.4 kg/m3
9747.4 kPa	979.4 kg/m3
9762.1 kPa	979.4 kg/m3
9776.4 kPa	979.4 kg/m3
9788.2 kPa	979.5 kg/m3
9798.4 kPa	979.4 kg/m3
9804.9 kPa	979.4 kg/m3
9900.4 kPa	979.4 kg/m3
9910.4 kPa	979.4 kg/m3
9915.9 kPa	979.4 kg/m3
9925.7 kPa	979.6 kg/m3
9936.9 kPa	979.5 kg/m3
9949.3 kPa	979.5 kg/m3
9960.5 kPa	979.5 kg/m3
9987.7 kPa	979.6 kg/m3
9992.5 kPa	979.5 kg/m3
10032 kPa	979.7 kg/m3
10036 kPa	979.6 kg/m3 and 979.7 kg/m3
10106 kPa	979.7 kg/m3
10118 kPa	979.7 kg/m3
10128 kPa	979.6 kg/m3
10139 kPa	979.6 kg/m3
10152 kPa	979.6 kg/m3
10164 kPa	979.7 kg/m3
10182 kPa	979.6 kg/m3
10203 kPa	979.7 kg/m3
10219 kPa	979.8 kg/m3
10240 kPa	979.8 kg/m3
10257 kPa	979.7 kg/m3
10473 kPa	979.9 kg/m3
10503 kPa	979.9 kg/m3
10540 kPa	980 kg/m3
10575 kPa	979.9 kg/m3
10605 kPa	980 kg/m3
10670 kPa	980 kg/m3
10704 kPa	980 kg/m3
10737 kPa	980.1 kg/m3
10764 kPa	980.1 kg/m3
10956 kPa	980.2 kg/m3
10977 kPa	980.2 kg/m3
11001 kPa	980.3 kg/m3
11018 kPa	980.2 kg/m3
11037 kPa	980.2 kg/m3
11056 kPa	980.3 kg/m3
11071 kPa	980.4 kg/m3
11201 kPa	980.4 kg/m3
11204 kPa	980.4 kg/m3
11210 kPa	980.4 kg/m3
11217 kPa	980.4 kg/m3
11228 kPa	980.4 kg/m3
11243 kPa	980.4 kg/m3
11257 kPa	980.3 kg/m3
11280 kPa	980.5 kg/m3
11301 kPa	980.4 kg/m3
11327 kPa	980.5 kg/m3
11349 kPa	980.5 kg/m3
11374 kPa	980.6 kg/m3
11395 kPa	980.6 kg/m3
11421 kPa	980.6 kg/m3
11448 kPa	980.5 kg/m3
11470 kPa	980.5 kg/m3
11496 kPa	980.6 kg/m3
11518 kPa	980.6 kg/m3
11545 kPa	980.6 kg/m3
11572 kPa	980.5 kg/m3
11594 kPa	980.5 kg/m3
11621 kPa	980.6 kg/m3
11849 kPa	980.8 kg/m3
11899 kPa	980.9 kg/m3
11926 kPa	980.8 kg/m3
